One test concerns the target T1, TGR26 (Rattus norvegicus, UniProt Q56UD9).
T1 construct: treated with restriction enzymes ClaI and SpeI, and the insert encoding TGR26 was excised; expressed in transfected cells; host or cells: CHO dhfr- cells, plasmid pAK-rGPR7; membrane fraction
T1 sequence (Q56UD9 1-329): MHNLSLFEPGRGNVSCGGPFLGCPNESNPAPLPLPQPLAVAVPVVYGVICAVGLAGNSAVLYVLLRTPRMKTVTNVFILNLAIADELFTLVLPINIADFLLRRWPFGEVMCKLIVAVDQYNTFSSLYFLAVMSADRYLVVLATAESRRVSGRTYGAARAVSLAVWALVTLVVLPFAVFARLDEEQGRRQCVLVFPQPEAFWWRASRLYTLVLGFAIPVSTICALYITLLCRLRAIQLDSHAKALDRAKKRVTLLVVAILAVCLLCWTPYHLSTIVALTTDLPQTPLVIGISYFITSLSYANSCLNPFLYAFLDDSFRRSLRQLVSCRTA
The test can be described thus: Receptor binding using [125I-Tyr10]-hGPR8L(1-23) and membrane fraction of TGR26 expressing CHO cells. As to conditions: membrane fraction of TGR26 expressing CHO cells, 3 μg/ml. How it is done: Using [^125I-Tyr^10]-hGPR8L(1-23) prepared by the method described in Reference Example 42 and a cell membrane fraction prepared from TGR26 expressing cells as described in Example 6, a receptor binding assay was carried out as follows.
Cell membrane fraction prepared from TGR26 expressing cells was diluted to various concentration with assay buffer (25 mM Tris-HCl, 5 mM EDTA, 0.05% CHAPS (3-[(3-Cholamidopropyl) Dimethyl-Ammonio]-1-Propanesulfonate), 0.1% BSA, 0.5 mM PMSF, 1 μg/ml Pepstatin, 20 μg/ml Leupeptin, 4 μg/ml E-64, pH7.4), and 200 μl each of the diluent was dispensed into polypropilene test tube (Falcon 2053). In order to determine an amount of maximum binding, 2 μl of DMSO and 2 μl of 7 nM [^125I-Tyr^10]-hGPR8L(1-23) were added to the membrane fraction solution. […] After filtration, a radioactivity remaining on the filter was counted using γ-counter, and an amount of specific binding was estimated by subtracting an amount of non-specific binding from an amount of maximum binding. […]
A receptor binding activity of human- and porcine-homologue derivatives of GPR8 ligand peptide obtained in the reference examples was measured using a membrane fraction of TGR26 expressing CHO cells and [^125I-Tyr^10]-hGPR8L(1-23) by the method described in Reference Example 73. […]

The next test concerns the target T2, human GPR8 (Homo sapiens, UniProt P48146).
T2 construct: expressed in transfected cells; host or cells: CHO dhfr- cells, plasmid pAKKO-GPR8; membrane fraction
In words: Receptor binding using [125I-Tyr10]-hGPR8L(1-23) and membrane fraction of GPR8 expressing CHO cells. Particulars: membrane fraction of human GPR8 expressing cells.

No end group written: not given here. *: point of attachment. 125I = [125I]*

T2 sequence (P48146 whole entry): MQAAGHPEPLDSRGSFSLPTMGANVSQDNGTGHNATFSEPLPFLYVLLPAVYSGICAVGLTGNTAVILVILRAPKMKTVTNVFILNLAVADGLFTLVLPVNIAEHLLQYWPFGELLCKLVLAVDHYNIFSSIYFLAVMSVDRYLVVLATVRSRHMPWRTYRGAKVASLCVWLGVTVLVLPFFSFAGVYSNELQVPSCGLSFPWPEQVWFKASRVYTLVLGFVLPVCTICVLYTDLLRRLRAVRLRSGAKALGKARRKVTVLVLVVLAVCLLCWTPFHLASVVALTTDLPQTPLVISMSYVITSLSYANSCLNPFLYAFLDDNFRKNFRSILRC

The IC50 is the concentration at which inhibition is half-maximal. In turn, `CSCC[C@H](NC(=O)[C@H](CC(C)C)NC(=O)[C@H](CC(C)C)NC(=O)CNC(=O)[C@H](C)NC(=O)[C@H](C)NC(=O)[C@H](CCCNC(=N)N)NC(=O)CNC(=O)[C@@H](NC(=O)[C@@H](NC(=O)[C@H](Cc1c[nH]cn1)NC(=O)[C@H](Cc1ccc(O)cc1)NC(=O)[C@H](CCCNC(=N)N)NC(=O)[C@@H]1CCCN1C(=O)[C@H](CO)NC(=O)[C@H](C)NC(=O)[C@@H](NC(=O)[C@H](Cc1c[nH]cn1)NC(=O)[C@H](CCCCN)NC(=O)[C@H](Cc1ccc(O)cc1)NC(=O)[C@@H](N)Cc1c[nH]c2ccccc12)[C@@H](C)O)[C@@H](C)O)C(C)C)C(=O)NCC(=O)N[C@@H](CC(C)C)C(=O)O` [pGPR8L(1-23)] came in with a half-maximal inhibitory concentration (IC50) on TGR26 of 0.12 nM.

“[^125I-Tyr^10]-hGPR8L(1-23): hGPR8L(1-23) iodinated with 125I at Tyr10 by the lactoperoxidase method; radioligand (WYKHVASPRY(125I)HTVGRAAGLLMGL)”: the “specific binding compared with [125I-Tyr2]-hGPR8L(1-23)” value with human GPR8 is reported as “twice as much”.

(Values after patent US7375074B2, “Body weight gain inhibitor” (priority 2001, dated 2008).)
